{"source": "ChEMBL document CHEMBL4261637", "about": "“Discovery of a non-toxic [1,2,4]triazolo[1,5-a]pyrimidin-7-one (WS-10) that modulates ABCB1-mediated multidrug resistance (MDR)” (Bioorg Med Chem, 2018)", "key": {"TE-1": {"test_system": "TE-1", "test": "Cytotoxicity against human TE1 cells at 10 to 20 uM after 72 hrs by MTT assay", "format": "cell-based", "settings": "te-1, 72 h"}, "SGC-7901": {"test_system": "SGC-7901", "test": "Cytotoxicity against human SGC7901 cells at 10 to 20 uM after 72 hrs by MTT assay", "format": "cell-based", "settings": "sgc-7901, 72 h"}, "A549": {"test_system": "A549", "test": "Cytotoxicity against human A549 cells at 10 to 20 uM after 72 hrs by MTT assay", "format": "cell-based", "settings": "a549, 72 h"}, "ECa-109 cell line": {"test_system": "ECa-109 cell line", "test": "Cytotoxicity against human EC109 cells at 10 to 20 uM after 72 hrs by MTT assay", "format": "cell-based", "settings": "eca-109, 72 h"}, "MGC-803": {"test_system": "MGC-803", "test": "Cytotoxicity against human MGC803 cells at 10 to 20 uM after 72 hrs by MTT assay", "format": "cell-based", "settings": "mgc-803, 72 h"}, "SW-620 [1]": {"test_system": "SW-620", "test": "Potentiation of paclitaxel-induced cytotoxicity in human SW620 cells assessed as fold reduction in paclitaxel IC50 at 10 uM after 72 hrs by MTT assay relative to paclitaxel alone", "format": "functional"}, "SW-620 [2]": {"test_system": "SW-620", "test": "Potentiation of paclitaxel-induced cytotoxicity in human SW620 cells assessed as fold reduction in paclitaxel IC50 at 20 uM after 72 hrs by MTT assay relative to paclitaxel alone", "format": "functional"}, "SW-620 [3]": {"test_system": "SW-620", "test": "Potentiation of doxorubicin-induced cytotoxicity in human SW620 cells assessed as fold reduction in doxorubicin IC50 at 10 uM after 72 hrs by MTT assay relative to doxorubicin alone", "format": "functional"}, "SW-620 [4]": {"test_system": "SW-620", "test": "Potentiation of doxorubicin-induced cytotoxicity in human SW620 cells assessed as fold reduction in doxorubicin IC50 at 20 uM after 72 hrs by MTT assay relative to doxorubicin alone", "format": "functional"}, "SW-620 [5]": {"test_system": "SW-620", "test": "Potentiation of cisplatin-induced cytotoxicity in human SW620 cells assessed as fold reduction in cisplatin IC50 at 10 uM after 72 hrs by MTT assay relative to cisplatin alone", "format": "functional"}, "SW-620 [6]": {"test_system": "SW-620", "test": "Potentiation of cisplatin-induced cytotoxicity in human SW620 cells assessed as fold reduction in cisplatin IC50 at 20 uM after 72 hrs by MTT assay relative to cisplatin alone", "format": "functional"}, "HEK-293T [7]": {"test_system": "HEK-293T", "test": "Potentiation of paclitaxel-induced cytotoxicity in human HEK293T/NC cells assessed as fold reduction in paclitaxel IC50 at 10 uM after 72 hrs by MTT assay relative to paclitaxel", "format": "functional"}, "HEK-293T [8]": {"test_system": "HEK-293T", "test": "Potentiation of paclitaxel-induced cytotoxicity in human HEK293T/NC cells assessed as fold reduction in paclitaxel IC50 at 20 uM after 72 hrs by MTT assay relative to paclitaxel", "format": "functional"}, "HEK-293T [9]": {"test_system": "HEK-293T", "test": "Potentiation of doxorubicin-induced cytotoxicity in human HEK293T/NC cells assessed as fold reduction in doxorubicin IC50 at 10 uM after 72 hrs by MTT assay relative to doxorubicin", "format": "functional"}, "HEK-293T [10]": {"test_system": "HEK-293T", "test": "Potentiation of doxorubicin-induced cytotoxicity in human HEK293T/NC cells assessed as fold reduction in doxorubicin IC50 at 20 uM after 72 hrs by MTT assay relative to doxorubicin", "format": "functional"}, "HEK-293T [11]": {"test_system": "HEK-293T", "test": "Potentiation of cisplatin-induced cytotoxicity in human HEK293T/NC cells assessed as fold reduction in cisplatin IC50 at 10 uM after 72 hrs by MTT assay relative to cisplatin", "format": "functional"}, "[12]": {"target": "T1, ATP-dependent translocase ABCB1 (Homo sapiens, UniProt P08183)", "T1 sequence (P08183 whole entry)": "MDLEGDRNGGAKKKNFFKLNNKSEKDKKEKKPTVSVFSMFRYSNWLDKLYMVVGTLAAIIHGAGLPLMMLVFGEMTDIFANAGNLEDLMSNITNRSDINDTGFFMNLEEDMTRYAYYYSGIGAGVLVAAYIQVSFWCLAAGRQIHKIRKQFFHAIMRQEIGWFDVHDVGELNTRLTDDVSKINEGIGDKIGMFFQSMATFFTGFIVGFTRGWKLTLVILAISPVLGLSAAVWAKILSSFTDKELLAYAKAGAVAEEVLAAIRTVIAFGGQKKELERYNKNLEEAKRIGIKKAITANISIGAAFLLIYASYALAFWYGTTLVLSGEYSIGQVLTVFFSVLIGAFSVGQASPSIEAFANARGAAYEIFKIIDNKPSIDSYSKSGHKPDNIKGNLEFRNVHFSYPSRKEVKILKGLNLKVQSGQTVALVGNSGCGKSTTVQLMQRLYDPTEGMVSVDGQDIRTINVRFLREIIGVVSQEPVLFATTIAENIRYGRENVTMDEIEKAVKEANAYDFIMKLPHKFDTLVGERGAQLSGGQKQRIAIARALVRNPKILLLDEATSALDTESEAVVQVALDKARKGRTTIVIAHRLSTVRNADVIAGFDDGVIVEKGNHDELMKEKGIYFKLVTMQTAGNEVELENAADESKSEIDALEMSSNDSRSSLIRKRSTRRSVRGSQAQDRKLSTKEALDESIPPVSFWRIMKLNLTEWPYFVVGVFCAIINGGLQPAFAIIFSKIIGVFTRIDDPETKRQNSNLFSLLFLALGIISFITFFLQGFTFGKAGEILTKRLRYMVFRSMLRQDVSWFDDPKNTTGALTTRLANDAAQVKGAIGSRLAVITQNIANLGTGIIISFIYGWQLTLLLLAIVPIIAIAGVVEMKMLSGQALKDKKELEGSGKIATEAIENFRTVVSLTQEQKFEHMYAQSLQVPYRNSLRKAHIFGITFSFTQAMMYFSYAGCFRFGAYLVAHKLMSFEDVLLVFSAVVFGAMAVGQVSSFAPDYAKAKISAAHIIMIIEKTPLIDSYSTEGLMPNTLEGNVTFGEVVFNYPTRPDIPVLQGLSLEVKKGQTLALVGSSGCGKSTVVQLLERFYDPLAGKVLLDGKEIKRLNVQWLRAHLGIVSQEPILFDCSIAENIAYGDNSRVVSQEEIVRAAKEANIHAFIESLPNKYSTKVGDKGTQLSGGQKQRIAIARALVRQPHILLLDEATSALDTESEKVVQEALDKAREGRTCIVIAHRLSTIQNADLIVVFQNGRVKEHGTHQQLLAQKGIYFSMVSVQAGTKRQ", "test": "Inhibition of ABCB1 in human SW620/AD300 cells assessed as intracellular accumulation of paclitaxel at 10 to 20 uM after 72 hrs by UPLC analysis", "format": "cell-based"}, "SW620/AD300 [13]": {"test_system": "SW620/AD300", "test": "Effect on ABCB1 expression in human SW620/AD300 cells at 20 uM up to 96 hrs by Western blot analysis", "format": "functional, cell-based"}, "SW620/AD300 [14]": {"test_system": "SW620/AD300", "test": "Effect on ABCB1 expression in human SW620/AD300 cells at 10 to 20 uM by Western blot analysis", "format": "functional, cell-based"}, "SW620/AD300 [15]": {"test_system": "SW620/AD300", "test": "Effect on subcellular localization of ABCB1 in human SW620/AD300 cells at 10 to 20 uM after 72 hrs by Hoechst 33342 staining-based immunofluorescence assay", "format": "functional, cell-based"}, "[16]": {"target": "T1, ATP-dependent translocase ABCB1", "test": "Binding affinity to ABCB1 in human SW620/AD300 cells assessed as thermal stabilization incubated for 30 mins at 43 to 80 degC by CETSA", "format": "cell-based", "settings": "0.5 h"}, "SW-620 [17]": {"test_system": "SW-620", "test": "Potentiation of paclitaxel-induced cytotoxicity in human SW620 cells assessed as fold reduction in paclitaxel IC50 at 4 uM after 72 hrs by MTT assay relative to paclitaxel alone", "format": "functional"}, "SW-620 [18]": {"test_system": "SW-620", "test": "Potentiation of doxorubicin-induced cytotoxicity in human SW620 cells assessed as fold reduction in doxorubicin IC50 at 4 uM after 72 hrs by MTT assay relative to doxorubicin alone", "format": "functional"}, "SW-620 [19]": {"test_system": "SW-620", "test": "Potentiation of cisplatin-induced cytotoxicity in human SW620 cells assessed as fold reduction in cisplatin IC50 at 4 uM after 72 hrs by MTT assay relative to cisplatin alone", "format": "functional"}, "HEK-293T [20]": {"test_system": "HEK-293T", "test": "Potentiation of paclitaxel-induced cytotoxicity in human HEK293T/NC cells assessed as fold reduction in paclitaxel IC50 at 4 uM after 72 hrs by MTT assay relative to paclitaxel", "format": "functional"}, "HEK-293T [21]": {"test_system": "HEK-293T", "test": "Potentiation of doxorubicin-induced cytotoxicity in human HEK293T/NC cells assessed as fold reduction in doxorubicin IC50 at 4 uM after 72 hrs by MTT assay relative to doxorubicin", "format": "functional"}, "HEK-293T [22]": {"test_system": "HEK-293T", "test": "Potentiation of cisplatin-induced cytotoxicity in human HEK293T/NC cells assessed as fold reduction in cisplatin IC50 at 4 uM after 72 hrs by MTT assay relative to cisplatin", "format": "functional"}}, "note": "The source made the active and inactive calls. No cut-off for these calls is given here.", "data": [{"molecule": "O=c1cc(-c2ccccc2)[nH]c2nc(SCc3nc4ccccc4[nH]3)nn12", "values": [{"measurement": "Activity", "setting": "TE-1", "result": "Non-Toxic"}, {"measurement": "Activity", "setting": "SGC-7901", "result": "Non-Toxic"}, {"measurement": "Activity", "setting": "A549", "result": "Non-Toxic"}, {"measurement": "Activity", "setting": "ECa-109 cell line", "result": "Non-Toxic"}, {"measurement": "Activity", "setting": "MGC-803", "result": "Non-Toxic"}, {"measurement": "Ratio IC50", "setting": "SW-620 [1]", "result": 1.2}, {"measurement": "Ratio IC50", "setting": "SW-620 [2]", "result": 0.81}, {"measurement": "Ratio IC50", "setting": "SW-620 [3]", "result": 1.17}, {"measurement": "Ratio IC50", "setting": "SW-620 [4]", "result": 1.14}, {"measurement": "Ratio IC50", "setting": "SW-620 [5]", "result": 1.07}, {"measurement": "Ratio IC50", "setting": "SW-620 [6]", "result": 0.97}, {"measurement": "Ratio IC50", "setting": "HEK-293T [7]", "result": 0.87}, {"measurement": "Ratio IC50", "setting": "HEK-293T [8]", "result": 0.83}, {"measurement": "Ratio IC50", "setting": "HEK-293T [9]", "result": 1.14}, {"measurement": "Ratio IC50", "setting": "HEK-293T [10]", "result": 1.08}, {"measurement": "Ratio IC50", "setting": "HEK-293T [11]", "result": 1.04}, {"measurement": "inhibition (INH)", "setting": "[12]", "result": "Active"}, {"measurement": "Activity", "setting": "SW620/AD300 [13]", "result": "inactive"}, {"measurement": "Activity", "setting": "SW620/AD300 [14]", "result": "inactive"}, {"measurement": "Activity", "setting": "SW620/AD300 [15]", "result": "inactive"}, {"measurement": "Activity", "setting": "[16]", "result": "Active"}]}, {"molecule": "COc1ccc(CCN(C)CCCC(C#N)(c2ccc(OC)c(OC)c2)C(C)C)cc1OC", "note": "(configuration not stated)", "values": [{"measurement": "Ratio IC50", "setting": "SW-620 [17]", "result": 1.29}, {"measurement": "Ratio IC50", "setting": "SW-620 [18]", "result": 1.18}, {"measurement": "Ratio IC50", "setting": "SW-620 [19]", "result": 1.1}, {"measurement": "Ratio IC50", "setting": "HEK-293T [20]", "result": 0.84}, {"measurement": "Ratio IC50", "setting": "HEK-293T [21]", "result": 1.07}, {"measurement": "Ratio IC50", "setting": "HEK-293T [22]", "result": 0.89}]}]}
